# Measurements published in ChEMBL document CHEMBL1153295, “Stereoselective synthesis of 15- and 16-substituted isosteviol derivatives and their cytotoxic activities” (Bioorg Med Chem Lett, 2009).
# Active and inactive are the calls of the source. No cut-off for these calls is given here.
# Tested on: B16-F10
# Assay: Cytotoxicity against mouse B16F10 cells at 100 uM after 48 hrs by MTT assay
# Format: functional
# Conditions: not given
row,SMILES,inhibition
1,C[C@@]12CC[C@@H]3[C@@](CC[C@H]4[C@@]3(C)CCC[C@@]4(C)C(=O)O)(C[C@H]1O)C2,inactive
2,C[C@]12CC[C@H]3[C@]4(C)CCC[C@@](C)(C(=O)O)[C@H]4CC[C@@]3(C1)[C@H](CO)[C@H]2O,inactive
3,C[C@@]12CC[C@@H]3[C@@](CC[C@H]4[C@@]3(C)CCC[C@@]4(C)C(=O)O)(CC1=O)C2,inactive
4,CCOC(=O)[C@]1(C)CCC[C@@]2(C)[C@@H]3CC[C@@]4(C)C[C@]3(CC[C@@H]21)CC4=O,inactive
5,C=CC(=O)O[C@@H]1C[C@]23CC[C@H]4[C@@](C)(CCC[C@@]4(C)C(=O)OCC)[C@@H]2CC[C@@]1(C)C3,inactive
6,CCOC(=O)[C@]1(C)CCC[C@@]2(C)[C@@H]3CC[C@@]4(C)C[C@]3(CC[C@@H]21)[C@@H]1CO[C@H]4O1,inactive
7,C=C[C@]12CC[C@H]3[C@@](C)(CCC[C@@]3(C)C(=O)OCC)[C@@H]1CC[C@](C)(C(=O)O)C2,inactive
8,C=C[C@]12CC[C@H]3[C@@](C)(CCC[C@@]3(C)C(=O)OCC)[C@@H]1CC[C@](C)(C=O)C2,inactive
9,CCOC(=O)[C@]1(C)CCC[C@@]2(C)[C@@H]3CC[C@@]4(C)C[C@]3(CC[C@@H]21)[C@@H]1CON(C)[C@@H]14,inactive
10,CCOC(=O)[C@]1(C)CCC[C@@]2(C)[C@@H]3CC[C@@]4(C)C[C@]3(CC[C@@H]21)[C@H](CO[N+](=O)[O-])[C@H]4O[N+](=O)[O-],inactive

# Same assay, conditions: B16-F10, 48 h
row,SMILES,inhibition at 100 µM
1,C=C[C@]12CC[C@H]3[C@@](C)(CCC[C@@]3(C)C(=O)OCC)[C@@H]1CC[C@](C)(CN)C2,34.3%

# Tested on: B16-F10
# Assay: Cytotoxicity against mouse B16F10 cells after 48 hrs by MTT assay
# Format: functional, cell-based
# Conditions: B16-F10, 48 h
row,SMILES,IC50
1,CCOC(=O)[C@]1(C)CCC[C@@]2(C)[C@@H]3CC[C@@]4(C)C[C@]3(CC[C@@H]21)[C@@H]1CN(c2ccc([N+](=O)[O-])cc2)N=C14,21 µM
2,CCOC(=O)[C@]1(C)CCC[C@@]2(C)[C@@H]3CC[C@@]4(C)C[C@]3(CC[C@@H]21)C[C@H]4O,58 µM
3,CCOC(=O)[C@]1(C)CCC[C@@]2(C)[C@@H]3CC[C@@]4(C)C[C@]3(CC[C@@H]21)[C@@H]1CON[C@@H]14,15 µM
4,CCOC(=O)[C@]1(C)CCC[C@@]2(C)[C@@H]3CC[C@@]4(C)C[C@]3(CC[C@@H]21)[C@H](CO)[C@H]4O,68 µM
5,C=C[C@]12CC[C@H]3[C@@](C)(CCC[C@@]3(C)C(=O)OCC)[C@@H]1CC[C@](C)(CO)C2,24 µM
6,C=C[C@]12CC[C@H]3[C@@](C)(CCC[C@@]3(C)C(=O)OCC)[C@@H]1CC[C@](C)(O)C2,26 µM
7,CCOC(=O)[C@]1(C)CCC[C@@]2(C)[C@@H]3CC[C@@]4(C)C[C@]3(CC[C@@H]21)[C@H](COC(=O)c1cccnc1)[C@H]4O,25 µM
8,CCOC(=O)[C@]1(C)CCC[C@@]2(C)[C@@H]3CC[C@@]4(C)C[C@]3(CC[C@@H]21)c1cn(-c2ccccc2)nc14,19 µM
9,C=C[C@]12CC[C@H]3[C@@](C)(CCC[C@@]3(C)C(=O)OCC)[C@@H]1CC[C@](C)(C=N)C2,27.5 µM
10,CCOC(=O)[C@]1(C)CCC[C@@]2(C)[C@@H]3CC[C@@]4(C)C[C@]3(CC[C@@H]21)[C@H](COC(=O)c1cccnc1)[C@H]4OC(=O)c1cccnc1,22 µM
